The structures appear in SMILES notation. pIC50: −log10 of the molar value.

One test concerns the target BACE1 enzyme (Homo sapiens (Human), UniProt P56817). Put plainly: BACE1 Cell-Free Assay (fluorescence polarization, cleavage of synthetic APP substrate). Particulars: average of 2 determinations; values marked b: geometric mean of 3-9 determinations. The test is classed as biochemical. From the text:
This assay measures the inhibition of the beta-secretase enzyme as it cleaves a non-native peptide.
A synthetic APP substrate that can be cleaved by beta-secretase having N-terminal biotin and made fluorescent by the covalent attachment of Oregon Green at the Cys residue is used to assay beta-secretase activity in the presence or absence of the inhibitory compounds. […] The BACE1 enzyme is affinity purified material from conditioned media of CHO-K1 cells that have been transfected with a soluble BACE construct (BACE1deltaTM96His). Compounds are incubated in a ½ log dose response curve from a top concentration of 100 μM with BACE1 enzyme and the biotinylated fluorescent peptide in 384-well black plates (Thermo Scientific #4318). BACE1 is at a final concentration of 0.1 nM with a final concentration of peptide substrate of 150 nM in a reaction volume of 30 μL assay buffer [100 mM sodium acetate, pH 4.5 (brought to pH with acetic acid), and 0.001% Tween-20]. Plates are covered and incubated for 3 hours at 37° C. The reaction is stopped with the addition of 30 μL of 1.5 μM Streptavidin (Pierce, #21125). After a 10 minute incubation at room temperature, plates are read on a PerkinElmer EnVision for fluorescence polarization (Ex485 nm/Em530 nm). The activity of the beta-secretase enzyme is detected by changes in the fluorescence polarization that occur when the substrate is cleaved by the enzyme.

Test [1] relates to sAPPβ levels in H4 human neuroglioma cells over-expressing the wild-type human APP695. Put plainly: Whole Cell Assay (In Vitro sAPPb Assay). The test is classed as cell-based. The conditions noted are these: Homo sapiens, 18 hours treatment, average of 2 determinations, values marked b: geometric mean of 3-9 determinations. How it is done:
Whole Cell Assay (In Vitro sAPPb Assay):
H4 human neuroglioma cells over-expressing the wild-type human APP695 are treated for 18 hours with compound in a final concentration 1% DMSO. sAPPβ levels are measured using TMB-ELISA with capture APP N-terminal antibody (Affinity BioReagents, OMA1-03132), wild-type sAPPβ specific reporter p192 (Elan), and tertiary anti rabbit-HRP (GE Healthcare).

BACE1 enzyme, sequence (P56817 46-457): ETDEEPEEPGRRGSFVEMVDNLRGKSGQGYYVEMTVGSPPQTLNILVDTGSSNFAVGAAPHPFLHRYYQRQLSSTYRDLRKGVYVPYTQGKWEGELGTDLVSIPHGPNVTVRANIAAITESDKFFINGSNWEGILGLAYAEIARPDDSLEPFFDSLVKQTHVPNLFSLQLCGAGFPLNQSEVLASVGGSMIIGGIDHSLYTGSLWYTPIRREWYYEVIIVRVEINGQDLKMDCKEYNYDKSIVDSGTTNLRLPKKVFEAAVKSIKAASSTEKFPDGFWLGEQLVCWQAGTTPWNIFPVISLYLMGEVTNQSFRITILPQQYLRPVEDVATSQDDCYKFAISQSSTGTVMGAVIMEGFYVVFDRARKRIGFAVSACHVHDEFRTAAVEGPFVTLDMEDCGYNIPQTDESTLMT

On to `NC1=N[C@@]2(c3ccc(F)cc3F)CO[C@@H](c3nc4ccncc4o3)C[C@H]2CS1` [Example 23, (4aR,6R,8aS)-8a-(2,4-Difluorophenyl)-6-([1,3]oxazolo[5,4-c]pyridin-2-yl)-4,4a,5,6,8,8a-hexahydropyrano[3,4-d][1,3]thiazin-2-amine], for which the figures for the pIC50 (against BACE1 enzyme; in test [1]) were 5.30 and 7.39, respectively.

Turning to `NC1=N[C@@]2(c3ccc(F)cc3F)CO[C@@H](c3cncnc3)C[C@H]2CS1` [Example 24, (4aR,6R,8aS)-8a-(2,4-Difluorophenyl)-6-(pyrimidin-5-yl)-4,4a,5,6,8,8a-hexahydropyrano[3,4-d][1,3]thiazin-2-amine], the pIC50 – broadly, −log10 of the IC50, conventionally taken in molar units – against BACE1 enzyme is 5.81; in test [1], 6.85.

Regarding `COc1cc([C@H]2C[C@H]3CSC(N)=N[C@@]3(c3ccc(F)cc3F)CO2)ccn1` [Example 25, (4aR,6R,8aS)-8a-(2,4-Difluorophenyl)-6-(2-methoxypyridin-4-yl)-4,4a,5,6,8,8a-hexahydropyrano[3,4-d][1,3]thiazin-2-amine], the pIC50 against BACE1 enzyme is 6.42; in test [1], 7.39.

Take `COc1cncc([C@H]2C[C@H]3CSC(N)=N[C@@]3(c3ccc(F)cc3F)CO2)c1` [Example 26, (4aR,6R,8aS)-8a-(2,4-Difluorophenyl)-6-(5-methoxypyridin-3-yl)-4,4a,5,6,8,8a-hexahydropyrano[3,4-d][1,3]thiazin-2-amine]: the pIC50 on BACE1 enzyme is 5.90; in test [1], 7.20.

In the case of `Cc1cc([C@H]2C[C@H]3CSC(N)=N[C@@]3(c3ccc(F)cc3F)CO2)ccn1` [Example 27, (4aR,6R,8aS)-8a-(2,4-Difluorophenyl)-6-(2-methylpyridin-4-yl)-4,4a,5,6,8,8a-hexahydropyrano[3,4-d][1,3]thiazin-2-amine], the pIC50 against BACE1 enzyme was 6.66; in test [1] it was 8.33.

With `NC1=N[C@@]2(c3ccc(F)cc3F)CO[C@@H](c3ccc4nccn4c3)C[C@H]2CS1` [Example 28, (4aR,6R,8aS)-8a-(2,4-Difluorophenyl)-6-(imidazo[1,2-a]pyridin-6-yl)-4,4a,5,6,8,8a-hexahydropyrano[3,4-d][1,3]thiazin-2-amine], the pIC50 against BACE1 enzyme is 5.67; in test [1] it was 7.81.

As to `Cc1cnc([C@@H]2C[C@@H]3CSC(N)=N[C@]3(c3ccc(F)cc3F)CO2)cn1` [Example C89, (4aS,6S,8aR)-8a-(2,4-difluorophenyl)-6-(5-methylpyrazin-2-yl)-4,4a,5,6,8,8a-hexahydropyrano[3,4-d][1,3]thiazin-2-amine], the negative-log IC50 (pIC50) is 4.44 on BACE1 enzyme and 5.87 in test [1].

The values above are taken from patent US8865706B2, “Heteroaryl-substituted hexahydropyrano[3,4-d][1,3]thiazin-2-amine compounds” (Pfizer Inc., priority 2013, dated 2014).
